Source: PMC8997165, “Transcriptional CDK Inhibitors as Potential Treatment Option for Testicular Germ Cell Tumors” (Cancers, 2022)

Experiments:
Type in all cases: cell-based, human
[1] = tested on: 2102EP cells; assay: XTT cell viability assay, 2102EP
Experimental: (§1) The following cell lines were used 2102EP, 2102EP-R, NCCIT, NCCIT-R (all ECs), TCam2 (seminoma cell line), FS1 (Sertoli cell line) and MPAF (human adult fibroblast cell line). Cells were cultivated as described previously. In brief, the ECs were cultivated in Dulbecco’s modified Eagle’s medium (DMEM) supplemented with 10% fetal bovine serum (FBS), 1% penicillin–streptomycin and […] L-glutamine. FS1 cells were grown in DMEM supplemented with 20% FSB, 1% penicillin–streptomycin, 200 mM L-glutamine and 1% nonessential amino acids (NEAA). MPAF cells were cultured in DMEM supplemented with 10% FBS, 1% penicillin–streptomycin, 200 mM L-glutamine and 1% NEAA. TCam2 cell line was cultured in RPMI medium supplemented with 10% FBS, 1% penicillin–streptomycin and […] L-glutamine. All cell lines were kept at 37 °C and 7.5% CO2. 2102EP and NCCIT were a kind gift from Prof. Dr. L. Looijenga (Princess Máxima Center for Pediatric Oncology, Utrecht, The Netherlands). Cisplatin-resistant lines 2102EP-R and NCCIT-R were obtained from PD Dr. F. Honecker (Breast and Tumor Center, ZeTup Silberturm, St. Gallen, Switzerland). MPAFs were a kind gift from […] (Bonn University, Institute of Reconstructive Neurobiology, Bonn, Germany). FS1 cells were obtained from Prof. Dr. V. Schumacher (Boston Children’s Hospital, Department of Urology; Harvard Medical School, Department of Surgery, Boston, MA, USA).
(§2) The assay was performed based on the reduction in XTT tetrazolium salt as described previously. In summary, 3000 cells were seeded per well of a 96-well cell culture plate in 100 µL of cell culture medium. The next day, cells were treated with CDK inhibitor or CDK degrader for 24/48/72 h. For XTT assay, 0.6 mg/mL XTT sodium salt was dissolved in cell culture medium (DMEM or RPMI) and supplemented with 25 µM electron carrier N-methyl dibenzopyrazine methyl sulfate (PMS). A total of 50 µL of XTT/PMS was added to each well and incubated for 4 h at 37 °C, 7.5% CO2. For readout, absorption was measured at 450 nm and 650 nm. Specific XTT signal (450 nm) was subtracted by nonspecific absorbance (650) and blank (cell culture medium). Averages of technical triplicates were calculated, and treated sample was referenced to the corresponding dimethyl sufoxide (DMSO) control. Experiment was repeated several times to obtain biological replicates. For statistical analysis, two-tailed Student’s t-test was applied.

[2] = tested on: 2102EP-R cells; assay: XTT cell viability assay, 2102EP-R (cisplatin-resistant)
Experimental: as §1, §2

[3] = tested on: NCCIT cells; assay: XTT cell viability assay, NCCIT
Experimental: as §1, §2

[4] = tested on: NCCIT-R cells; assay: XTT cell viability assay, NCCIT-R (cisplatin-resistant)
Experimental: as §1, §2

[5] = tested on: TCam2 cells; assay: XTT cell viability assay, TCam2
Experimental: as §1, §2

[6] = tested on: FS1 cells; assay: XTT cell viability assay, FS1 Sertoli control
Experimental: as §1, §2

[7] = tested on: MPAF cells; assay: XTT cell viability assay, MPAF fibroblast control; conditions: XTT viability
Experimental: as §1, §2

[8] = tested on: TGCT cell lines; assay: XTT cell viability assay, summarised over TGCT tumor cell lines; conditions: TGCT cell lines and FS1 cell line, 10 nM
Experimental: as §1, §2

[9] = tested on: 2102EP and NCCIT cells; assay: 7AAD/AnnexinV FACS apoptosis analysis, 2102EP and NCCIT; conditions: 10 nM, 24 and 48 h
Experimental: (§3) Cells were seeded in 6-well cell culture plates (1.5 × 10^5 cells/well). […] For cell cycle analysis, cells were harvested after 20 h of treatment and resuspended in PBS. Ice-cold methanol was added dropwise while shaking until 70% methanol v/v was reached. Cells were incubated for 2 h at 4 °C and subsequently washed twice with cold PBS. Staining (2 µg/mL Hoechst-33342, 50 µg/mL RNaseA in PBS) was performed for 30 min at 37 °C. The cell cycle distribution was measured in an FACS Canto (BD BioSciences, Heidelberg, Germany) and analyzed using FlowJo™ v10.8 Software (BD BioSciences, Heidelberg, Germany). For apoptosis analysis, PE AnnexinV Apoptosis Detection Kit with 7-AAD (BioLegend, San Diego, CA USA) was used according to the manufacturer’s manual. Measurement was performed in an FACS Canto while analysis was performed in the corresponding BD FACSDiva software^TM (BD BioSciences, Heidelberg, Germany). Two-tailed Student’s t-test was applied for calculation of significance.

[10] = tested on: TCam2, FS1 and MPAF cells; assay: 7AAD/AnnexinV FACS apoptosis analysis, TCam2, FS1 and MPAF; conditions: 10 nM, 24 and 48 h
Experimental: as §3

[11] = tested on: TGCT and control cell lines; assay: Hoechst-FACS cell cycle analysis; conditions: 20 h; NVP2 and SY0351 10 nM, YKL-5-124 and THZ531 100 nM
Experimental: as §3

For `COC[C@@H](C)N[C@H]1CC[C@H](Nc2cc(-c3cccc(NCC4(C#N)CCOCC4)n3)c(Cl)cn2)CC1` [NVP2], the IC50 ([1]; 24 h) was 503 nM, the IC50 ([1]; 48 h) was 10.5 nM and the IC50 ([1]; 72 h) was 6.1 nM. The IC50 ([2]; 24 h) was 884 nM, the IC50 ([2]; 48 h) was 11.2 nM and the IC50 ([2]; 72 h) was 8.6 nM. For the same molecule, the IC50 ([3]; 24 h) was 90.6 nM, the IC50 ([3]; 48 h) was 40.7 nM and the IC50 ([3]; 72 h) was 6.5 nM. For the same molecule, the IC50 ([4]; 24 h) was 104 nM, the IC50 ([4]; 48 h) was 17.1 nM and the IC50 ([4]; 72 h) was 12.2 nM. The IC50 ([5]; TCam2, 24 h) was 216 nM, the IC50 ([5]; TCam2, 48 h) was 60 nM and the IC50 ([5]; TCam2, 72 h) was 16.1 nM. For the same molecule, the IC50 ([6]; FS1, 24 h) was 98.2 nM, the IC50 ([6]; FS1, 48 h) was 33.5 nM and the IC50 ([6]; FS1, 72 h) was 8.9 nM. The IC50 ([7]; 24 h) was over 1000 nM, the IC50 ([7]; 48 h) was over 1000 nM and the IC50 ([7]; 72 h) was over 1000 nM. For the same molecule, the “viability (XTT)” value [8] was “effectively reduced the viability”, the “apoptosis, fold compared to the control” value [9] was “up to 5.5 fold” and the “fold change in apoptotic cells” value [10] was “up to 3.3 fold”. The “effect on cell cycle” value [11] was “only mild effects on the cell cycle”.
